Here are results for 14 compounds from ChEMBL document CHEMBL1130650, “Nitroglycosylated meso-arylporphyrins as photoinhibitors of gram positive bacteria” (1998).

For assay [1], the system named is Escherichia coli. Briefly: Compound was tested for photoinhibition of Escherichia coli (CIP 548T); Resistant. Format: functional, organism-based.
The test system of assay [2] is Escherichia coli. Nature of the assay: Compound was tested for photoinhibition of Escherichia coli (CIP 548T); Sensitive. In kind it is functional, organism-based.
Assay [3] relates to Staphylococcus aureus. Nature of the assay: Compound was tested for photoinhibition of Staphylococcus aureus(CIP 53156); Sensitive. Format: functional, organism-based.
Assay [4] has as its system Staphylococcus aureus. Nature of the assay: Compound was tested for photoinhibition of Staphylococcus aureus(CIP 53156); […]. Format: functional, organism-based.
Assay [5] has as its system Staphylococcus aureus. Briefly: Compound was tested for photoinhibition of Staphylococcus aureus(CIP 53156). In kind it is functional, organism-based.
For assay [6], the system named is Escherichia coli. Briefly: Compound was tested for photoinhibition of Escherichia coli (CIP 548T); Partially resistant. Format: functional, organism-based.
The test system of assay [7] is Staphylococcus aureus. Briefly: Compound was tested for antibacterial activity against Staphylococcus aureus CIP 53156. Format: functional.
The subject of assay [8] is Staphylococcus aureus. Briefly: Compound was tested for photoinhibition of Staphylococcus aureus(CIP 53156); Partially resistant. In kind it is functional, organism-based.

In brackets after ≈: the same amount, converted by molar mass. Activity calls are given as the source filed them. No cut-off for these calls is given here. Where a SMILES comes first, the peptide text is derived from it. Bridges are numbered along the chain shown (N, C = ends). [ ]: non-standard residue; d: D form. The star is where a group is joined. NMePhe(4-NMe2) = CN[C@@H](Cc1ccc(N(C)C)cc1)C(=O)O; Pip(4-oxo) = O=C1CCN[C@H](C(=O)O)C1; Picolinoyl(3-OH) = O=C(c1ncccc1O)*; Phg = N[C@H](C(=O)O)c1ccccc1; dAbu = CC[C@@H](N)C(=O)O

As for `CC[C@H]1NC(=O)[C@@H](NC(=O)c2ncccc2O)[C@@H](C)OC(=O)[C@H](c2ccccc2)NC(=O)[C@@H]2CC(=O)CCN2C(=O)[C@H](Cc2ccc(N(C)C)cc2)N(C)C(=O)[C@@H]2CCCN2C1=O` ({Picolinoyl(3-OH)}-T[dAbu]P[NMePhe(4-NMe2)][Pip(4-oxo)][Phg]; ester 1-C), the Antibiotic resistance result in assay [1] was “Resistant”.

For the compound `CN(C)[C@@H]1C(O)=C(C(N)=O)C(=O)[C@@]2(O)C(O)=C3C(=O)c4c(O)cccc4[C@@](C)(O)[C@H]3C[C@@H]12`, the Antibiotic resistance entry in assay [2] and in assay [3] was “Active” each time. On to `CCn1cc(C(=O)O)c(=O)c2ccc(C)nc21`, for which the Antibiotic resistance entry in assay [4] is given as “Resistant”. Consider `CN[C@H](CC(C)C)C(=O)N[C@H]1C(=O)N[C@@H](CC(N)=O)C(=O)N[C@H]2C(=O)N[C@H]3C(=O)N[C@H](C(=O)N[C@H](C(=O)O)c4cc(O)cc(O)c4-c4cc3ccc4O)[C@H](O)c3ccc(c(Cl)c3)Oc3cc2cc(c3O[C@@H]2O[C@H](CO)[C@@H](O)[C@H](O)[C@H]2O[C@H]2C[C@](C)(N)[C@H](O)[C@H](C)O2)Oc2ccc(cc2Cl)[C@H]1O`, for which the Antibiotic resistance result in assay [3] is recorded as “Sensitive”.

Consider `CN[C@@H]1[C@H](O[C@H]2[C@H](O[C@H]3[C@H](O)[C@@H](O)[C@H](N=C(N)N)[C@@H](O)[C@@H]3N=C(N)N)O[C@@H](C)[C@]2(O)C=O)O[C@@H](CO)[C@H](O)[C@H]1O`, for which the Antibiotic resistance result in assay [2] and in assay [3] was “Sensitive” each time. Turning to `CC1(C)S[C@@H]2[C@H](NC(=O)Cc3ccccc3)C(=O)N2[C@H]1C(=O)O`, the Antibiotic resistance result in assay [3] is “Sensitive”. Regarding `CO[C@H]1/C=C/O[C@@]2(C)Oc3c(C)c(O)c4c(O)c(c(/C=N/N5CCN(C)CC5)c(O)c4c3C2=O)NC(=O)/C(C)=C\C=C\[C@H](C)[C@H](O)[C@@H](C)[C@@H](O)[C@@H](C)[C@H](OC(C)=O)[C@@H]1C`, the Antibiotic resistance result in assay [2] and in assay [3] was “Sensitive” in each case. As to `CC(=O)OCC1=C(C(=O)O)N2C(=O)[C@@H](NC(=O)Cc3cccs3)[C@H]2SC1`, the Antibiotic resistance entry in assay [5] and in assay [6] was “Partially resistant” in each case.

For the compound `O=[N+]([O-])c1ccc(-c2c3nc(c(-c4ccc(OC[C@H]5O[C@H](O)[C@H](O)[C@@H](O)[C@@H]5O)cc4)c4nc(c(-c5ccc(OC[C@H]6O[C@H](O)[C@H](O)[C@@H](O)[C@@H]6O)cc5)c5ccc([nH]5)c(-c5ccc(OC[C@H]6O[C@H](O)[C@H](O)[C@@H](O)[C@@H]6O)cc5)c5ccc2[nH]5)C=C4)C=C3)cc1`, the CI50 in assay [7] was determined as 10 µg/mL (≈ 8.37 µM).

With `Nc1ccc(S(N)(=O)=O)cc1`, the Antibiotic resistance result in assay [2] and in assay [3] was “Sensitive” throughout. `CC[C@H]1OC(=O)[C@H](C)[C@@H](O[C@H]2C[C@@](C)(OC)[C@@H](O)[C@H](C)O2)[C@H](C)[C@@H](O[C@@H]2O[C@H](C)C[C@H](N(C)C)[C@H]2O)[C@](C)(O)C[C@@H](C)C(=O)[C@H](C)[C@@H](O)[C@]1(C)O`: the Antibiotic resistance result in assay [6] and in assay [3] was “Partially resistant” each time.

Turning to `CC1(C)S[C@@H]2[C@H](NC(=O)[C@H](N)c3ccc(O)cc3)C(=O)N2[C@H]1C(=O)O`, the Antibiotic resistance result in assay [2] is given as “Sensitive”. As for `O=C(N[C@H](CO)[C@H](O)c1ccc([N+](=O)[O-])cc1)C(Cl)Cl`, the Antibiotic resistance entry in assay [8] and in assay [2] was “Partially resistant” each time. With `NC[C@H]1O[C@H](O[C@H]2[C@H](O)[C@@H](O[C@H]3O[C@H](CO)[C@@H](O)[C@H](N)[C@H]3O)[C@H](N)C[C@@H]2N)[C@H](O)[C@@H](O)[C@@H]1O`, the Antibiotic resistance result in assay [3] is reported as “Sensitive”.
